Source: patent publication US9464093B2, “Substituted imidazo[4',5':4,5]cyclopenta[1,2-e]pyrrolo[1,2-a]pyrazines and oxazolo[4',5':4,5]cyclopenta[1,2-e]pyrrolo[1,2-a]pyrazines for treating brain cancer” (Mayo Foundation for Medical Education and Research, priority 2012, dated 2016)
Where two headings read alike, the source gives them in different places.

Experiments:
[1] = test system: Raji B cells (Burkitt's lymphoma cells); assay: Cytotoxicity, cell count, Raji (Example 4); details: read-out: Cytotoxicity (IC50, μM) Raji
Description: (§1) Raji cells and MB-468 cells were purchased from American Tissue Culture (Manassas, Va.). […] Cells were harvested and counted on the third day in a Coulter Particle Counter (Beckman-Coulter Corp.: Brea, Calif.). IC50 values were calculated using GraphPad Prism 5 (GraphPad Software Inc., La Jolla, Calif.).

[2] = test system: MB-468 (triple-negative breast cancer cells); assay: Cytotoxicity, cell count, MB-468 (Example 4); details: read-out: Cytotoxicity (IC50, μM) MB-468
Description: as §1

[3] = test system: DU145 prostate cancer cells; assay: Cytotoxicity, MTT method, DU145; details: read-out: Cytotoxicity (IC50, μM) DU145
Description: The cell suspension in the culture medium was plated into each well of 96-well plates (10,000 cells/well/100 μL). After 24 h, testing compounds were added, and then the plates were incubated for an additional 24 h in a humidified atmosphere of 5% CO2 at 37° C. […] The IC50 value was determined by linear interpolation from the growth inhibition curve.

Molecule	IC50 ([1]; Homo sapiens, Raji) [µM]	IC50 [2] [µM]	IC50 ([3]; Homo sapiens, DU-145, 24 h) [µM]	other results
CNC(=O)N[C@H]1[C@@H]2NC(=O)c3ccc(Br)n3[C@@H]2C[C@H]1O [UAA, ureaagelastaitin A]	> 10	> 10		
CCN1C(=O)N[C@H]2[C@@H]3NC(=O)c4cccn4[C@@H]3C[C@]21O [DeBEAA, debromoethylagelastatin A]			> 10	
CN1C(=O)N[C@@H]2[C@H]3NC(=O)c4ccc(Br)n4[C@H]3C[C@@]21O [ent-AA]				IC50 ([3]; MTT, 24 h incubation): > 10 µM
COc1ccc(CN2C(=O)N[C@H]3[C@@H]4NC(=O)c5ccc(Br)n5[C@@H]4C[C@]32O)cc1 [N-PMBAA, N-p-methoxybenzyl agelastatin A]			> 10	
debromoagelastatin A [DeBAA]				IC50 ([3]; MTT, 24 h incubation): > 10 µM; IC50 ([1]; cells counted on the third day): 3.16 µM; IC50 ([2]; cells counted on the third day): 3 µM
CN1C(=O)N[C@H]2[C@@H]3NC(=O)c4ccc(-c5ccccc5)n4[C@@H]3C[C@]21O [PAA, phenylagelastatin A]	3.8	1.5	6	
CCN1C(=O)N[C@H]2[C@@H]3NC(=O)c4ccc(Br)n4[C@@H]3C[C@]21O [EAA, ethylagelastatin A]			> 10	
CN1C(=O)N[C@H]2[C@@H]3NC(=O)c4ccc(-c5ccc(N)cc5)n4[C@@H]3C[C@]21O [APAA, p-aminophenylagelastatin A]			> 10	
CN1C(=O)N[C@H]2[C@@H]3NC(=O)c4ccc(C5CC5)n4[C@@H]3C[C@]21O [CPAA, cyclopropylagelastatin A]	0.4	1	5	
